US11390868B2, “Treatment of filaggrin (FLG) related diseases by modulation of FLG expression and activity” (CuRNA, Inc., priority 2009, dated 2022)
Counter-ions that a name gives are not always drawn. Like-named read-outs stand apart in the source and are kept apart here.

Assays:
[1] = tested on: FLG Natural Antisense Transcripts in primary keratinocytes; assay: Real time PCR of FLG Natural Antisense Transcripts after treatment of primary keratinocytes with small compounds; assay type: cell-based; details: small compounds 1 uM, dosed twice, 24 h after second dosing, vs vehicle control (FIG. 5)
Protocol: Primary keratinocytes (from Promocell) were grown in a growth media (Keratinocyte Growth Media, Promocell cat #C-2011) at 37° C. with 5% CO2. One day before the experiment the cells were replated at approximately 5×10^4/ml (or about ⅓ dilution from 90% confluency) into 24-well collagen-coated plates (Beckton Dickinson BioCoat plates cat #35 6408) and incubated at 37° C. and 5% CO2 overnight. On the day of the experiment the media in the 24-well plates was changed to 1 ml fresh growth media. Small compounds were diluted in DMSO to the concentration of 1000 uM. On the day of the experiment this solution was diluted 1:100 in fresh growth media. Pure DMSO was diluted in media at the same ratio […] to treat vehicle control samples. To dose one well, […] of the compound or pure DMSO solution was added directly to well of a 24-well plate. The final concentration of compounds was 1 uM. Dosing volume was adjusted if a different concentration of compound was desired. After dosing the plates were incubated overnight at 37° C., 5% CO2. 24 h after addition of small compounds the media was replaced with fresh growth media and the dosing was repeated as described above. 24 h after second dosing RNA was extracted from the cells using SV Total RNA Isolation System from Promega (cat #Z3105) following the manufacturers' instructions. 600 ng of total RNA was added to the reverse transcription reaction performed using High Capacity cDNA kit from Applied Biosystems (cat #4368813) as described in the manufacturer's protocol. The cDNA from this reverse transcription reaction was used to monitor gene expression by real time PCR using BI Taqman Gene Expression Mix (cat #4369510) and primers/probes designed by AB (for example, assay ID #Hs00856927_gl for FLG). The following PCR cycle was used: 50° C. for 2 min, 95° C. for 10 min, 40 cycles of (95° C. for 15 seconds, 60° C. for […]) using StepOne thermal cycler (ABI). […] Fold change in gene expression after treatment with small compounds was calculated based on the difference in 18S-normalized dCt values between treated and mock-transfected samples.

[2] = cited from earlier work
[3] = cited from earlier work; for solubility in ethanol / alcohol: anhydrous ethanol or alcohol
[4] = cited from earlier work; remark: listed apart in the source
[5] = tested on: TNF-alpha; details: several case studies and a pilot study; cited from earlier work
[6] = tested on: patients with severe head trauma; details: peripheral vein injection plus standard procedures; cited from earlier work

For `CC1(C)O[C@@H]2[C@@H](CO[C@@]3(COS(N)(=O)=O)OC(C)(C)O[C@@H]23)O1` [Topiramate, 2,3:4,5-Di-O-isopropylidene-β-D-fructopyranose sulfamate], the “levels of FLG Natural Antisense Transcripts” value (“levels” below) [1] is listed as “significantly decreased”, the “pH of saturated solution” value [2] is listed as 6.3 and the solubility in acetone [3] is listed as “freely soluble”. The “solubility in alkaline solutions” value ([3]; alkaline solutions containing sodium hydroxide or sodium phosphate, pH of 9 to 10) was “most soluble”, the solubility in chloroform [3] was “freely soluble” and the “solubility in dimethyl sulfoxide” value ([3]; dimethyl sulfoxide) was “freely soluble”. The “solubility in ethanol / alcohol” value [3] was “freely soluble”.

In the case of `CN1C(C(=O)Nc2ccccn2)=C(O)c2ccccc2S1(=O)=O` [Piroxicam, 4-hydroxyl-2-methyl-N-2-pyridinyl-2H-1,2,-benzothiazine-3-carboxamide 1,1-dioxide], the “pKa of weak basic pyridyl nitrogen” value ([4]; pyridyl nitrogen) is given as 1.8, the “solubility in aqueous solutions” value ([3]; aqueous solutions) is given as “slightly soluble” and the “solubility in dilute acid” value ([3]; dilute acid) is given as “sparingly soluble”. For the same compound, the “solubility in ethanol / alcohol” value [3] was “slightly soluble”, the “solubility in most organic solvents” value ([3]; most organic solvents) was “sparingly soluble” and the “solubility in water” value [3] was “sparingly soluble”.

For `CC(NC(C)(C)C)C(=O)c1cccc(Cl)c1.Cl` (racemic) [Bupropion, (±)-1-(3-chlorophenyl)-2-[(1,1-dimethylethyl)amino]-1-propanone hydrochloride], the “levels” value [1] is given as “significantly decreased”, the “level of inflammatory mediator TNF-alpha” value [5] is given as “lowers” and the “solubility in water” value [3] is given as “highly soluble”.

For `O=C([O-])CCc1nc(-c2ccccc2)c(-c2ccccc2)o1.[K+]` [Oxaprozin potassium, 4,5-diphenyl-2-oxazolepropionic acid, potassium salt], the PK in water ([4]; in water) is given as 9.7, the “solubility in ethanol / alcohol” value [3] is given as “slightly soluble” and the “solubility in water” value [3] is given as “very soluble”.

For `COC(=O)C1=C(C)NC(C)=C(C(=O)OC(C)C)C1c1cccc2nonc12` (stereo not drawn) [Isradipine, 3,5-Pyridinedicarboxylic acid, 4-(4-benzofurazanyl)-1,4-dihydro-2,6-dimethyl-, methyl 1-methylethyl ester], the solubility in acetone [3] is given as “freely soluble”, the solubility in chloroform [3] is given as “freely soluble” and the “solubility in ethanol / alcohol” value [3] is given as “soluble”. The “solubility in methylene chloride” value ([3]; methylene chloride) was “freely soluble”, the solubility in water ([3]; 37° C.) was < 10 mg/L and the “solubility in water” value [3] was “practically insoluble”.

In the case of `CCc1ccc(CCOc2ccc(CC3SC(=O)NC3=O)cc2)nc1` (racemic) [Pioglitazone hydrochloride, [(±)-5-[[4-[2-(5-ethyl-2-pyridinyl)ethoxy]phenyl]methyl]-2,4-]thiazolidinedione monohydrochloride], the “solubility in N,N-dimethylformamide” value ([3]; N,N-dimethylformamide) is given as “soluble”, the solubility in acetone [3] is given as “very slightly soluble” and the solubility in acetonitrile ([3]; acetonitrile) is given as “very slightly soluble”. The “solubility in ethanol / alcohol” value [3] was “slightly soluble”, the solubility in ether ([3]; ether) was “insoluble” and the “solubility in water” value [3] was “practically insoluble”.

In the case of `COCCOC(=O)C1=C(C)NC(C)=C(C(=O)OC(C)C)C1c1cccc([N+](=O)[O-])c1` (stereo not drawn) [nimodipine, isopropyl 2-methoxyethyl 1,4-dihydro-2,6-dimethyl-4-(m-nitrophenyl)-3,5-pyridinedicarboxylate], the “Glasgow outcome score values” [6] is given as “higher”, the cerebral metabolism [6] is given as “improved” and the cerebral perfusion pressure [6] is given as “significantly higher”. For the same compound, the intracranial pressure [6] was “lower”, the jugular glucose [6] was “lower” and the jugular lactate [6] was “lower”. The “jugular venous oxygen saturation” value [6] was “significantly higher”.

In the case of `COC(=O)C1=C(C)NC(C)=C(C(=O)O[C@@H]2CCCN(Cc3ccccc3)C2)[C@@H]1c1cccc([N+](=O)[O-])c1.Cl` (relative stereo) [Bendipine, (4R)-rel-1,4-Dihydro-2,6-dimethyl-4-(3-nitrophenyl)-3,5-pyridinedicarboxylic acid 3-methyl 5-[(3R)-1-(phenylmethyl)-3-piperidinyl]ester hydrochloride], the “levels” value [1] is reported as “significantly decreased”.
